Legend:
[1] = target: α-MSH receptor; experiment: Frog melanocyte assay, pigment dispersion (agonist mode) in wild type melanophores; assay type: cell-based, Xenopus laevis; conditions: for EC50: FIG. 4; for pigment dispersion (result in words): α-MSH-ANT dimer: at higher concentrations (FIG. 6)
Description: Frog Melanocyte Assay. Xenopus laevis melanophores were maintained in culture as described by M. Engel et al., Biochemistry 30, 3161-3169 (1991); C. A. Slate et al., Int. J. Peptide Protein Res. 45, 290-298 (1995); and C. Plank et al., J. Biol. Chem. 269, 12918-12924 (1994). Transient expression of bombesin receptor plasmid DNA (pJG3.6BR) in melanophores was achieved by electroporation (C. A. Slate et al., Int. J. Peptide Protein Res. 45, 290-298 (1995)). Melanophores were plated (15,000 per well) on 96 well tissue culture plates (Falcon), and time and dose-response curves were obtained by microtiter plate assays (R. Duncan et al., Clin. Pharmacokinet. 27, 290-306 (1994); M. Engel et al., Biochemistry 30, 3161-3169 (1991); C. A. Slate et al., Int. J. Peptide Protein Res. 45, 290-298 (1995); C. Plank et al., J. Biol. Chem. 269, 12918-12924 (1994); and P. M. Conn et al., Endocrinology 111, 335-337 (1982)). Prior to addition of monomers or dimers, cells were washed and then incubated for one hour with 0.7× L15 media supplemented with 1 nM melatonin. […] Monomers or dimers were added to the microtiter wells in 20 μl aliquots at 10 times their final concentration. For IC50 curves, the media also was supplemented with 5 nM α-MSH.
(§1) Phototransmission was measured at 620 nm using a 340 ATTC microtiter plate reader (SLT Lab Instruments). Transmission readings were taken 1 hour following the addition of melatonin (Ti), and monomers or dimers were added immediately. Additional readings (Tf) were made at various time points (5-60 min). Data was curve fitted by nonlinear regression with y=1−(Tf/Ti). The final data was normalized and expressed as a percentage of maximal pigment dispersion (ymax).
For this study, a rapid, functional assay for G-protein-coupled receptors in frog melanophore cells (C. K. Jayawickreme et al., J. Biol. Chem. 269, 29846-29854 (1994); M. N. Potenza et al., Anal. Biochem. 206, 315-322 (1992); G. F. Graminski et al., J. Biol. Chem. 268, 5957-5964 (1993); S. Karne et al., J. Biol. Chem. 268, 19126-19133 (1993); and C. K. Jayawickreme et al., Proc. Natl. Acad. Sci. USA 91, 1614-1618 (1994)) was used. In frog melanocyte cells, ligands like α-MSH that mediate increases in cellular cyclic AMP levels, or like endothelin 3 that stimulate PI metabolism (S. Karne et al., J. Biol. Chem. 268, 19126-19133 (1993)), cause pigment dispersion and cell darkening, whereas inhibitors of cyclic AMP synthesis, like melatonin, cause pigment aggregation and cell lightening. In this study, the effect of monomeric and dimeric peptides on pigment dispersion was determined.
Wild type melanophores were used for assays involving α-MSH and α-MSH-ANT monomers and dimers. Melanophores that were transfected with a plasmid that contained the bombesin receptor coding region were used for assays involving bombesin monomer and dimer (G. F. Graminski et al., J. Biol. Chem. 268, 5957-5964 (1993); and C. K. Jayawickreme et al., Proc. Natl. Acad. Sci. USA 91, 1614-1618 (1994)).

[2] = target: α-MSH receptor; experiment: Frog melanocyte assay, inhibition of α-MSH (5 nM) mediated pigment dispersion in wild type melanophores; assay type: cell-based, Xenopus laevis; conditions: 5 nM α-MSH, t=30 min, FIG. 5
Description: Frog Melanocyte Assay. Xenopus laevis melanophores were maintained in culture as described by M. Engel et al., Biochemistry 30, 3161-3169 (1991); C. A. Slate et al., Int. J. Peptide Protein Res. 45, 290-298 (1995); and C. Plank et al., J. Biol. Chem. 269, 12918-12924 (1994). Transient expression of bombesin receptor plasmid DNA (pJG3.6BR) in melanophores was achieved by electroporation (C. A. Slate et al., Int. J. Peptide Protein Res. 45, 290-298 (1995)). […]
as §1, with “Data was curve fitted by nonlinear regression with y=1−(Tf/Ti).” left out
For this study, a rapid, functional assay for G-protein-coupled receptors in frog melanophore cells (C. K. Jayawickreme et al., J. Biol. Chem. 269, 29846-29854 (1994); M. N. Potenza et al., Anal. Biochem. 206, 315-322 (1992); G. F. Graminski et al., J. Biol. Chem. 268, 5957-5964 (1993); S. Karne et al., J. Biol. Chem. 268, 19126-19133 (1993); and C. K. Jayawickreme et al., Proc. Natl. Acad. Sci. USA 91, 1614-1618 (1994)) was used. […] In this study, the effect of monomeric and dimeric peptides on pigment dispersion was determined. […]

[3] = wild type melanophores, t=30 min

Substance | EC50 of dimer lower as compared to the monomer (fold) [1, 3] | EC50 [1, 3] | pigment dispersion (result in words) ([1]; wild type melanophores) | stimulation of dispersion below a concentration of 1 μM ([1]; below 1 μM, absence of α-MSH) | IC50 [2]
homodimer: ligand domains SYSMEHFRWGKPV-, spacer GGG-εAhx, K(20), two disulfide-linked cysteines end capped at C-termini with β-alanine [α-MSH dimer] | approximately 5 fold | 0.0725 ± 0.005 µM | stimulated dispersion in a time and dose-dependent manner |  | 
MPdFRdWFKPV-GGGεAhx-K(20)-βAla [α-MSH-ANT monomer, assay monomer lacking cysteine] |  |  | No significant dispersion | did not stimulate dispersion | 0.12 ± 0.006 µM
SYSMEHFRWGKPV-GGG-εAhx-K(20)-βAla [α-MSH monomer] |  | 0.372 ± 0.018 µM | stimulated dispersion in a time and dose-dependent manner |  | 
